According to PubChem BioAssay (NCI):
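Dose response: 5 concentrations. Exposure: 48 h. Format: 96-well plates. Endpoint: linear interpolation; highest concentration if not reached. At the GI50, growth is halved. TGI denotes the concentration required for complete inhibition of growth.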

Tests used:
Assay in all cases: DTP human tumour cell line panel, 48 h
NCI/ADR-RES ovarian = system: NCI/ADR-RES ovarian
SF-295 CNS = system: SF-295 CNS
U251 CNS = system: U251 CNS
HL-60(TB) leukemia = system: HL-60(TB) leukemia
HT29 colon = system: HT29 colon
UACC-62 melanoma = system: UACC-62 melanoma
786-0 renal = system: 786-0 renal
UACC-257 melanoma = system: UACC-257 melanoma
MCF7 breast = system: MCF7 breast
M14 melanoma = system: M14 melanoma

## Cc1nc2sc(C(=O)Nc3cccc(Cl)c3C)c(N)c2cc1C(O)c1ccccc1 (stereo not given)
NCI/ADR-RES ovarian
  GI50: 0.0318 µM
  TGI: 1.64 µM
SF-295 CNS
  GI50: 0.0333 µM
  TGI: 5.08 µM
U251 CNS
  GI50: 0.039 µM
  TGI: 13.8 µM
HL-60(TB) leukemia
  GI50: 0.0289 µM
  TGI: 0.133 µM
HT29 colon
  GI50: 0.0355 µM
  TGI: 8.35 µM
UACC-62 melanoma
  GI50: 0.087 µM
  TGI: 12 µM
786-0 renal
  GI50: 0.0667 µM
  TGI: 9.51 µM
UACC-257 melanoma
  GI50: 1.27 µM
  TGI: 22.9 µM
MCF7 breast
  GI50: 0.0332 µM
  TGI: 11.3 µM
M14 melanoma
  GI50: 0.0291 µM
  TGI: 13.1 µM

## Cc1cc(O)cc(-c2nn(C)cc2-c2cc(N3CCOCC3)nc(-c3cccnc3)n2)c1
NCI/ADR-RES ovarian
  GI50: 3.43 µM
  TGI: 33 µM
SF-295 CNS
  GI50: 3.28 µM
  TGI: 14.6 µM
U251 CNS
  GI50: 4.19 µM
  TGI: 18.9 µM
HL-60(TB) leukemia
  GI50: 2.81 µM
  TGI: 20.2 µM
HT29 colon
  GI50: 3.39 µM
  TGI: 21.9 µM
UACC-62 melanoma
  GI50: 1.9 µM
  TGI: 18.7 µM
786-0 renal
  GI50: 2.52 µM
  TGI: 11.6 µM
UACC-257 melanoma
  GI50: 13.4 µM
  TGI: 35.4 µM
MCF7 breast
  GI50: 1.13 µM
  TGI: 18.1 µM
M14 melanoma
  GI50: 3.55 µM
  TGI: 15.8 µM
